The values that follow come from patent US7667031B2, “Nucleic acid base pair” (Japan Science and Technology Agency, priority 1999, dated 2010).

The target of assay [1] is T1, T7 RNA polymerase (Escherichia phage T7, UniProt P00573). Description: Transcription by T7 RNA polymerase, gel electrophoresis of generated RNA. Type of assay: biochemical. The note with it: for incorporation into the complementary strand of A in transcription (FIG. 10): template 1 (N=A); for incorporation in transcription opposite G (FIG. 10): template 2 (N=G); for incorporation to X in transcription (FIG. 10): template 3 (N=X). On the procedure:
Similarly, a transcription reaction by RNA polymerase using DNA containing X as template was examined. Using template 1-3, promoter region on this strand was duplicated, and the transcription reaction was examined using T7 RNA polymerase by adding [α-^32P] ATP.
Template DNA 1 μM, in which promoter region has duplicated strands, and T7 RNA polymerase 2.5 units were added to a solution containing 2 mM rNTP, [α-^32P] […] The product was analyzed.

The target in assay [2] is T1, T7 RNA polymerase. As to the kind of experiment: Transcription by T7 RNA polymerase in presence of rNTP, RNase T2 digestion, 2-dimension TLC (templates 1 and 3). Type of assay: biochemical. To be noted: for Template 1 (N = A) Measured Value / Template 3 (N = X) Measured Value: rATP, rGTP, rCTP, UTP 2 mM, rYTP 1 mM, nucleotide composition by 2-dimension TLC. On the procedure:
Transcription reaction in the presence of rNTP was conducted. […] ATP under the condition of rATP 2 mM, rGTP 2 mM, rCTP 2 mM, UTP 2 mM, and rYTP 1 mM, then generated full length of RNA was digested completely by RNase T2, nucleotide labeled at 3′-terminal was analyzed by 2-dimension TLC. Outline of this experiment is shown as follows.
Reaction was performed as same as in example 8. The generated RNA was isolated by gel electrophoresis. RNA was digested by 0.75 units RNase T2. Each nucleotide was separated using 2-dimension TLC and each ratio was calculated.

Assay [3] deals with T2, Klenow fragment (Escherichia coli, UniProt P00582). Description: Primer extension reaction by Klenow fragment. Type of assay: biochemical, E. coli. Further details: Klenow fragment, which is deleted 5′-exonuclease from DNA polymerase I; purchased TAKARA. The note with it: 17° C.; for incorporation to the complementary strand X (primer extension, FIG. 6): template 3 1 μM. The text has this:
In order to examine formation of selective novel nucleic acid base pair by utilizing steric hindrance in the base pair X-Y, primer extension method of DNA and transcriptional reaction synthesizing RNA from DNA were applied. The primer extension method includes annealing template DNA oligomer with a primer oligomer, and adding DNA polymerase and 2′-deoxynucleotide-5′-triphosphate (dNTP) to extend complementary sequence of the template at 3′-terminal of the primer. Klenow fragment, which is deleted 5′-exonuclease from DNA polymerase I, one of DNA polymerase originated from E. coli, and T7 RNA polymerase, RNA polymerase originated from T7 phage, were herein used. Both enzymes are commonly used at present.
5′-terminal of the primer was labeled with ^32P using T4 polynucleotide kinase and […]. Primer labeled with ^32P (0.5 μM) and template 1 and 3 (1 μM) and various dNTP (150 μM), wherein N means base, were used for primer extension by Klenow fragment (0.2 unit/μl) at 17° C. for 30 minutes.
The thus obtained product was electrophoresed using 20% polyacrylamide 7M urea gel and analyzed by using imaging plate (Phosphoroimager analysis). In FIG. 6, left five, i.e. AG, AGC, AGT, AGY and AGCT, indicates cases using template 1, and right five indicates cases using template 3.
In order to search effect of incorporation of Y, C and T into the complementary strand of X, when two X are presented on the template, ^32P labeled primer 3 at 5′-terminal and template 4, 5, 6, 7, 8 and 9 were used for primer extension method.
5′-^32P labeled primer, template and 10× Klenow fragment buffer (TAKARA) 1 μl were added to the 0.5 ml tube, adjusted total volume to 7 μl, and annealed at 95° C. for 3 minutes, at 40° C. for 3 minutes and at 4° C. for 7 minutes. dNTP 1 μl, Klenow fragment (1 unit/ml, For Sequencing, TAKARA) 2 μl were added, adjusted to total volume to 10 μl and incubated for the fixed time at 17° C. The reaction was terminated by adding 10 M urea BPB dye 5 μl, heated at 75° C. for 5 minutes, and electrophoresed with 20% polyacrylamide gel with 7M urea gel electrophoresis. The result was analyzed using imaging plates (Phosphoroimager analysis). Single nucleotide insertion reaction is shown in FIG. 7 and primer extension reaction is shown in FIG. 6 and FIG. 9, respectively.

Assay [4] concerns the target T2, Klenow fragment. As to the kind of experiment: Single nucleotide insertion reaction by Klenow fragment. The note with it: primer 2 1 μM, only one dNTP 159 μM, 17° C., 30 minutes; for incorporated into complementary strand of X: template 3 2 μM. Type of assay: biochemical, E. coli. Also on record: Klenow fragment, which is deleted 5′-exonuclease from DNA polymerase I; purchased TAKARA. On the procedure:
For quantitative analysis of the incorporation, same experiments were conducted by adding only DNTP (159 μM) using primer 2 (1 μM) labeled with p32 at 5′-terminal and template 1, 2 and 3 (2 μM).
The result was analyzed using imaging plates (Phosphoroimager analysis). Single nucleotide insertion reaction is shown in FIG. 7 and primer extension reaction is shown in FIG. 6 and FIG. 9, respectively.

For a further assay, the target named is T3, Klenow fragment (exo+) (Escherichia coli, UniProt P00582).
T3 construct: Klenow fragment, which is deleted 5′-exonuclease from DNA polymerase I; purchased TAKARA
T3 sequence (P00582 324-928): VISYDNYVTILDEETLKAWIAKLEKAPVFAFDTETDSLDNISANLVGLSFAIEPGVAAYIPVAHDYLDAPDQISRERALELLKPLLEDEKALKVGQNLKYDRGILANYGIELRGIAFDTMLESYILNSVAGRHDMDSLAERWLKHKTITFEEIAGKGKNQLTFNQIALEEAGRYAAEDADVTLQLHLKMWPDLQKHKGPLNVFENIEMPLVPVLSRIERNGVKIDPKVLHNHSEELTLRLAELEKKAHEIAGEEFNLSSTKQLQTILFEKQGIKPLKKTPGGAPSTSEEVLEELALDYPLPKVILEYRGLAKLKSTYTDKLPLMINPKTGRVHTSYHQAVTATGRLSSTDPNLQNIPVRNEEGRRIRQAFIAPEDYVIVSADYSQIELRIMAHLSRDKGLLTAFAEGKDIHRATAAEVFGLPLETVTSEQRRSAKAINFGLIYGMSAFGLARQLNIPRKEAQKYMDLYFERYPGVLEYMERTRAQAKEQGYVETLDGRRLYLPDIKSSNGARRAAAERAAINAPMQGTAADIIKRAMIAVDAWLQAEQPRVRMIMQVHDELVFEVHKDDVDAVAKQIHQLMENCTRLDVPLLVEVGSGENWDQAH
As to the kind of experiment: Single nucleotide insertion reaction using Klenow fragment (exo+). Type of assay: biochemical, E. coli. To be noted: 3 minutes; for rate of incorporation on dx2: template N = X2, 37° C. On the procedure: Using Klenow fragment (exo^+), incorporation of dYTP on dx2 in the template (refer to example 10).
In the template, a position indicated by N was bound with base X or base X2 (for experimental) or base A (for control), and incorporation experiments of various bases were conducted. Results are shown in FIG. 12, in which lanes 1 and 2 indicate control experiments for incorporation of cytosine (C) and thymine (T) on adenine (A).
A solution containing [5′-^32P] labeled primer DNA (20-mer, […]), template DNA (35-mer, […]) and 2× Klenow fragment buffer (TAKARA) were annealed at 95° C. for 3 minutes, 40° C. for 3 minutes and 4° C. for 7 minutes. A solution of equimolar amount of 40 mM dNTP and Klenow fragment (exo^+) (2 unit/ml, For Sequencing, TAKARA) were added thereto and incubated at 37° C. for 3 minutes. […] Products were analyzed by using Phosphoroimager plate.

For assay [5], the target named is T2, Klenow fragment. To be noted: 17° C.
Method: Primer 2 without labeling and template 2 were annealed, and [α-^32P] TTP and various amounts of dYTP were added thereto to find out ratio of inhibition of incorporation of [α-^32P] TTP into X by dYTP was investigated. […] As a result, when dYTP was added almost equivalent level of [α-^32P] TTP, incorporation of [α-^32P]
Primer, template and 10× Klenow fragment buffer (TAKARA) 1 μl were added to 0.5 ml tube, and total volume was adjusted to 7 μl, and annealed at 95° C. for 3 minutes, at 40° C. for 3 minutes and at 4° C. for 7 minutes. [α-^32P] TTP or [α-^32P] dCTP and dYTP were added to final concentration for each level, and Klenow fragment (1 unit/ml, For Sequencing, TAKARA) 2 μl was added, adjusted to total volume to 10 μl and incubated for the fixed time at 17° C. The reaction was terminated by adding 10 M urea BPB dye 5 μl kept at 75° C. for 5 minutes, and electrophoresed with 20% polyacrylamide gel with 7M urea gel electrophoresis. The result was analyzed using imaging plates (Phosphoroimager analysis).
[6] abbreviates: primer 1 0.5 μM, dNTP 150 μM, 30 minutes.

Several values for one entry are separate records, joined by “and”; a condition that tells them apart may be missing. Identical values can stand only once.

T2 sequence (P00582 324-928): as above
T1 sequence (P00573 whole entry): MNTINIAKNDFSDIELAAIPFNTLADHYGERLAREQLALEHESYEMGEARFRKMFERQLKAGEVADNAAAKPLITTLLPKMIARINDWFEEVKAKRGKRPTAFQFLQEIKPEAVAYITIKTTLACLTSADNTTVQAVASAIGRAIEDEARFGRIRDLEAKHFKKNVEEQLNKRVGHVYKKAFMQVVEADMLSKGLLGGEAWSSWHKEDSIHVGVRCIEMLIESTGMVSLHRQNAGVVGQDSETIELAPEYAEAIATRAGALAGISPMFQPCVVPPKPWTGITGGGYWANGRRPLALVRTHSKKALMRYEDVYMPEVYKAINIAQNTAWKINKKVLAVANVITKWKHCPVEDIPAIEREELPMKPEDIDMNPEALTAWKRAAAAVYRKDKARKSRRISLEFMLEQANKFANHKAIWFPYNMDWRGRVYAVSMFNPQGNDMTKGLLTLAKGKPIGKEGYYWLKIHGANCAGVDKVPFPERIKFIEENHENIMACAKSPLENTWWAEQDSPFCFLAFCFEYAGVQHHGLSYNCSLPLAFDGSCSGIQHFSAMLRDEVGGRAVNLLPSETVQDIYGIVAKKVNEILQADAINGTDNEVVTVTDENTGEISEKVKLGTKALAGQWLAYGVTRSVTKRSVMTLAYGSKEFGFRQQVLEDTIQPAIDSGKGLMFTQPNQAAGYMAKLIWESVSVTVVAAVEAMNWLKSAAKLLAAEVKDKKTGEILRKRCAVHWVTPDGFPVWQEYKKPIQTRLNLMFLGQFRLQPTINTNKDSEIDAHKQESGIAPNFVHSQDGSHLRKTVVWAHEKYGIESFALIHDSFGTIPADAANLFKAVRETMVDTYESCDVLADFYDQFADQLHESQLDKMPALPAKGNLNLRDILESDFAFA

`O=c1cccc[nH]1` [Y, pyridine-2-one]: on T7 RNA polymerase [1], the “incorporation into the complementary strand of A in transcription (FIG. 10)” value is on record as “incorporated”, the “incorporation in transcription opposite G (FIG. 10)” value is “almost no production” and the “incorporation to X in transcription (FIG. 10)” value is “selective incorporation”. In addition, on T7 RNA polymerase [2] (template 1 (N=A)), the “incorporation in transcription reaction in the presence of rNTP” value (shortened to “incorporation in transcription reaction”) is “no incorporation”. For the same compound, the “incorporation in transcription reaction” value on T7 RNA polymerase [2] (template 3 (N=X)) is listed as “almost selectively incorporated”. Further, at Klenow fragment [3] (another base between two X on the template, primer 3, dNTP 150 μM, 60 minutes (FIG. 9)), the “incorporation into the complementary strand of the second X in the two X” value is reported as “only Y was incorporated”. Moreover, the “incorporation into complementary strands (primer extension, FIG. 6)” value on Klenow fragment [3] (primer 1 0.5 μM, template 1 and 3 1 μM, dNTP 150 μM, 30 minutes) was “incorporated into complementary strands of A, G and X”. Further, on Klenow fragment [4] (template 1 2 μM), the “incorporated into complementary strand of A” value worked out at 78%. At Klenow fragment [4] (template 2 2 μM), the “incorporated into complementary strand of G” value worked out at 48%. Further, the “incorporated into complementary strand of X” value at Klenow fragment [4] is 42% and 41%.
With `O=c1ccn([C@@H]2O[C@H](CO)[C@@H](OP(=O)(O)O)[C@H]2O)c(=O)[nH]1` [Up], on T7 RNA polymerase [2], the “Template 1 (N = A) Measured Value” is 0.98 and the “Template 3 (N = X) Measured Value” is 0.08.
With `Nc1ccn([C@H]2C[C@H](O)[C@@H](COP(=O)(O)OP(=O)(O)OP(=O)(O)O)O2)c(=O)n1` [dCTP], the “rate of incorporation on dx2” value at Klenow fragment (exo+) turned out to be 22%.
Consider `Cc1c[nH]c(=O)[nH]c1=O` [T, thymine], for which the “incorporation to the complementary strand X (primer extension, FIG. 6)” value at Klenow fragment [3] (setting [6]) is recorded as “incorporated”. Moreover, the “incorporated into complementary strand of X” value on Klenow fragment [4] is 13%.
Regarding `O=c1cc[nH]c(=O)[nH]1` [U], at T7 RNA polymerase [1], the “incorporation into the complementary strand of A in transcription (FIG. 10)” value was “incorporated” and the “incorporation to X in transcription (FIG. 10)” value is given as “Trace amount”. Moreover, the “incorporation in transcription reaction” value on T7 RNA polymerase [2] (template 3 (N=X)) is “trace amount”.
On to `O=c1[nH]cccc1[C@H]1C[C@H](O)[C@@H](COP(=O)(O)OP(=O)(O)OP(=O)(O)O)O1` [dYTP, 3-(2′-deoxy-5′-O-triphosphoryl-β-D-ribofuranosyl) pyridine-2-one], for which the “rate of incorporation on dx2” value at Klenow fragment (exo+) amounted to 40%. For the same compound, the “rate of incorporation on dx” value on Klenow fragment (exo+) (template N = X, 37° C.) is 21%. The “inhibition of incorporation of [α-32P] TTP into X by dYTP” value on Klenow fragment [5] (dYTP added at almost equivalent level of [α-32P] TTP, 30 minutes) was determined as 50%. In addition, the “inhibition of incorporation of [α-32P] TTP into the complementary strand of A” value on Klenow fragment [5] (template 1, dYTP 0-1000 μM) is recorded as “did not inhibit”. Moreover, on Klenow fragment [5] (template 2, dYTP 0-1000 μM), the “inhibition of incorporation of [α-32P] CTP into the complementary strand of G” value is reported as “did not inhibit”.
In the case of `Nc1ccn([C@@H]2O[C@H](CO)[C@@H](OP(=O)(O)O)[C@H]2O)c(=O)n1` [Cp], at T7 RNA polymerase [2], the “Template 1 (N = A) Measured Value” is 0.78 and the “Template 3 (N = X) Measured Value” is on record as 0.94.
For `Nc1ncnc2c1ncn2[C@@H]1O[C@H](CO)[C@@H](OP(=O)(O)O)[C@H]1O` [Ap] the same measures were 0.92 and 1.05.
As to `Nc1nc2c(ncn2[C@@H]2O[C@H](CO)[C@@H](OP(=O)(O)O)[C@H]2O)c(=O)[nH]1` [Gp], on T7 RNA polymerase [2], the “Template 1 (N = A) Measured Value” is 4 and the “Template 3 (N = X) Measured Value” came to 4.
As for `Nc1cc[nH]c(=O)n1` [C, cytosine], the “incorporation in transcription opposite G (FIG. 10)” value at T7 RNA polymerase [1] is “only C was incorporated”. The “incorporation to the complementary strand X (primer extension, FIG. 6)” value at Klenow fragment [3] (setting [6]) was “incorporated”. The “incorporated into complementary strand of X” value at Klenow fragment [4] is reported as 9.5%.
